The text below walks through data of PMC9034499, “RORγt agonist enhances anti-PD-1 therapy by promoting monocyte-derived dendritic cells through CXCL10 in cancers” (Journal of Experimental & Clinical Cancer Research : CR, 2022).

Test [1] deals with Th17 cells (CD4+ T cells). As to the kind of experiment: Murine Th17 differentiation, flow cytometry. Type of test: cell-based, mouse. Conditions: Th17, intracellular staining, same concentration. The procedure: CD4^+ CD25^−CD62L^high cells were purified from C57BL/6 splenocytes using an EasySep Mouse Naïve CD4^+ T cell isolation kit from STEMCELL Technologies (Vancouver, Canada), and they were differentiated into Th17 cells (TGF-β, 2 ng/ml; IL-6, 20 ng/ml; Anti-IFN-γ, 10 μg/ml; Anti-IL-4, 10 μg/ml, BioLegend, San Diego, CA) in the presence of plate-bound anti-CD3 (5 μg/ml, BioLegend, San Diego, CA) and anti-CD28 (2 μg/ml, BioLegend, San Diego, CA). The cells were harvested and processed for cytokine analysis at the RNA or protein level using real-time qPCR, flow cytometry, and ELISA on day five. Alternatively, splenocytes from OT-I mice were activated using OVA-derived peptides SIINFEKL (50 ng/ml, Sangon Biotech, Shanghai, China) and polarized to Tc17 cells using cytokine TGF-β (2 ng/ml, BioLegend, San Diego, CA) and IL-6 (20 ng/ml, BioLegend, San Diego, CA) for four or five days.
Cells were stained with fluorochrome-labeled anti-mouse Ab such as CD45, CD3, CD4, CD8, Foxp3, IFN-γ, IL-17A, CD11b, CD11c, pAKT, pSTAT3, CCR6, or MHCII. […] Cells were acquired using the FACS Aria II machine and analyzed using FlowJo software.

In test [2] the target is T1, RORγt (Homo sapiens, UniProt P51449).
T1 sequence (P51449 263-518 limits assumed): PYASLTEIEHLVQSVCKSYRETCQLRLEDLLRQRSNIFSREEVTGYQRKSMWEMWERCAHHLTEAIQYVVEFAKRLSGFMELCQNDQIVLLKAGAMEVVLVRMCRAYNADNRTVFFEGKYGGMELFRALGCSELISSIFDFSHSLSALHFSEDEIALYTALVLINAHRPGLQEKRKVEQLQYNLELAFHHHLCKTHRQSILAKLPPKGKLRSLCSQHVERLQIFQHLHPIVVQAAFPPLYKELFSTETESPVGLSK
T1 sequence (Q15788 676-700 partner limits assumed): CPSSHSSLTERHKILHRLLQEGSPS
Briefly: RORγt dual FRET assay. It counts as biochemical. The procedure: The assay was performed according to a previous study. The plates were incubated for 1 h at room temperature and then read on Envision in LANCE mode configured for the europeum-APC labels.

For test [3], the system named is mouse Th17 cells. As to the kind of experiment: IL-17A secretion by Th17 cells (ELISA). Type of test: cell-based. Conditions: ELISA of supernatant, 0 to 160 nM. On the procedure:
CD4^+ CD25^−CD62L^high cells were purified from C57BL/6 splenocytes using an EasySep Mouse Naïve CD4^+ T cell isolation kit from STEMCELL Technologies (Vancouver, Canada), and they were differentiated into Th17 cells (TGF-β, 2 ng/ml; IL-6, 20 ng/ml; Anti-IFN-γ, 10 μg/ml; Anti-IL-4, 10 μg/ml, BioLegend, San Diego, CA) in the presence of plate-bound anti-CD3 (5 μg/ml, BioLegend, San Diego, CA) and anti-CD28 (2 μg/ml, BioLegend, San Diego, CA). The cells were harvested and processed for cytokine analysis at the RNA or protein level using real-time qPCR, flow cytometry, and ELISA on day five. […]
The intracellular cytokines by TILs or in vitro differentiated T helper cells were quantified after restimulation with PMA plus ionomycin in the presence of GolgiStop for 6 h. The total RNA was isolated using the improved TRizol-based (Sigma, Darmstadt, Germany) method for qPCR analysis, and the mRNA expression was analyzed using a StepOnePlus (Life Technologies, Carlsbad, USA) real-time PCR instrument using housekeeping gene β-actin and Gapdh internal standards. qPCR was performed using A Power SYBR Green PCR Master Mix (Accurate Biology, Hunan, China) and two-cycle amplification for 40 cycles followed by the melting curve. […]

In test [4] the target is T2, hRORγt LBD (Homo sapiens, UniProt P51449).
T2 construct: expressed in transfected cells; host or cells: HEK293T
T2 sequence (P51449 269-508 limits assumed): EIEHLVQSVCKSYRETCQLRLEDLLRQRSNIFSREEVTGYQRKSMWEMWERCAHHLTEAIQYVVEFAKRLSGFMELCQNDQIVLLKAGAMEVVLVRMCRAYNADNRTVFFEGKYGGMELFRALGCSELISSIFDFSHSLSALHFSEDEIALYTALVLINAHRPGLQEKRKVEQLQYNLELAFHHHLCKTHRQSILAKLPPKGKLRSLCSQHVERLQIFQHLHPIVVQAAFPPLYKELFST
As to the kind of experiment: RORγt GAL4 cell-based reporter gene assay. Conditions: HEK293T host cells; read-out: EC50, RORγt agonist activity in Gal4 reporter gene assay. On the procedure:
The hRORγt LBD coding sequence was inserted into a pBIND expression vector (Promega, E1581) to express the ROR-GAL4 binding domain chimeric receptors. This expression vector and a reporter vector (pGL4.35, which carries a stably integrated GAL4 promoter-driven luciferase reporter gene [luc2P/9XGAL4 UAS/Hygro]) were co-transfected into the HEK293T host cells. The assay was performed according to a previous study. EC50 of the sigmoidal fits were analyzed using Prism 5 and a four-parameter logistic fit equation, Y = bottom + (top–bottom) / (1 + 10(logEC50 − X) × hill slope). "X" is the log of compound concentration, and "Y" is the response, which increases as X increases. Y starts at "bottom" and goes to "top" with a sigmoid shape.

In the case of `CCS(=O)(=O)c1ccc(CC(=O)Nc2ccc(-c3ccc(CC(C)C)c(C#N)c3)c(C(F)(F)F)c2)cc1` [8-074], the “percentage of CD4+ T cells that express IL-17A” value in test [1] is on record as 24.0%. Moreover, the EC50 in test [2] stood at 19.9 nM; in test [3] it was 22.8 nM; in test [4], 119 nM. Further, the “RORγt dual FRET %max” value in test [2] (maximal activation) is 199%.
